# According to patent US20030100549A1, “Inhibitors of c-Jun N-terminal kinases (JNK)” (priority 1999, published 2003):
# Biological target: T1, activated JNK3 (Homo sapiens, UniProt P53779)
# T1 construct: One such construct encodes amino acid residues Ser40-Glu402 of JNK3α1 and is preceded by Met and Gly residues; Met-Gly (initiator Met plus Gly added for the NcoI site) (N); made in house; host or cells: E. coli BL21 (DE3)
# Experiment: JNK3 inhibition, spectrophotometric coupled-enzyme assay
# Type: biochemical
# Conditions: activated JNK3 10 nM, 10 μM ATP, 200 μM EGF receptor peptide, 30° C.
# Description: A BLAST search of the EST database using the published JNK3α1 cDNA as a query identified an EST clone (#632588) that contained the entire coding sequence for human JNK3α1. Polymerase chain reactions (PCR) using pfu polymerase (Strategene) were used to introduce restriction sites into the cDNA for cloning into the pET-15B expression vector at the NcoI and BamHI sites. The protein was expressed in E. coli. Due to the poor solubility of the expressed full-length protein (Met 1-Gln 422), an N-terminally truncated protein starting at Ser residue at position 40 (Ser 40) was produced. This truncation corresponds to Ser 2 of JNK1 and JNK2 proteins, and is preceded by a methionine (initiation) and a glycine residue. The glycine residue was added in order to introduce an NcoI site for cloning into the expression vector. In addition, systematic C-terminal truncations were performed by PCR to identify a construct that give rise to diffraction-quality crystals. One such construct encodes amino acid residues Ser40-Glu402 of JNK3α1 and is preceded by Met and Gly residues.
# 5 mg of JNK3 was diluted to 0.5 mg/ml in 50 mM HEPES buffer, pH 7.5, containing 100 mM NaCl, 5 mM DTT, 20 mM MgCl2 and 1 mM ATP. GST-MKK7(DD) was added at a molar ratio of 1:2.5 GST-MKK7:JNK3. After incubation for 30 minutes at 25° C., the reaction mixture was concentrated 5-fold by ultrafiltration in a Centriprep-30 (Amicon, Beverly, Mass.), diluted to 10 ml and an additional 1 mM ATP added. This procedure was repeated three times to remove ADP and replenish ATP. The final addition of ATP was 5 mM and the mixture incubated overnight at 4° C.
# The activated JNK3/GST-MKK7(DD) reaction mixture was exchanged into 50 mM HEPES buffer, pH 7.5, containing 5 mM DTT and 5% glycerol (w/v) by dialysis or ultrafiltration. The reaction mixture was adjusted to 1.1 M potassium phosphate, pH 7.5, and purified by hydrophobic interaction chromatography (at 25° C.) using a Rainin Hydropore column. […] Activated JNK3 (i.e. doubly phosphorylated JNK3) was stored at −70° C. at 0.25-1 mg/ml.
# Compounds were assayed for the inhibition of JNK3 by a spectrophotometric coupled-enzyme assay. In this assay, a fixed concentration of activated JNK3 (10 nM) was incubated with various concentrations of a potential inhibitor dissolved in DMSO for 10 minutes at 30° C. in a buffer containing 0.1 M HEPES buffer, pH 7.5, containing 10 mM MgCl2, 2.5 mM phosphoenolpyruvate, 200 μM NADH, 150 μg/mL pyruvate kinase, 50 μg/mL lactate dehydrogenase, and 200 μM EGF receptor peptide. The EGF receptor peptide has the sequence […], and is a phosphoryl acceptor in the JNK3-catalyzed kinase reaction. The reaction was initiated by the addition of 10 μM ATP and the assay plate is inserted into the spectrophotometer's assay plate compartment that was maintained at 30° C. The decrease of absorbance at 340 nm was monitored as a function of time. The rate data as a function of inhibitor concentration was fitted to competitive inhibition kinetic model to determine the Ki.
# T1 sequence (P53779 40-402): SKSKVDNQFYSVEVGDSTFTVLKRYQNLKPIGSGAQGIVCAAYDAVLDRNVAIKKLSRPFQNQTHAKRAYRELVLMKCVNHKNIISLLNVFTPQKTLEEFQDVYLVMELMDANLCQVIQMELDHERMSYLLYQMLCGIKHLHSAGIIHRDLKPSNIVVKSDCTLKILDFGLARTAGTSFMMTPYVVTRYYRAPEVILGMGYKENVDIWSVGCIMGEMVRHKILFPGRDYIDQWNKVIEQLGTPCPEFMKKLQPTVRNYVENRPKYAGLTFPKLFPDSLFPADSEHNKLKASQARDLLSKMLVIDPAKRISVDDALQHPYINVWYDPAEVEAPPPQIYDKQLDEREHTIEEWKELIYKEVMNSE
row,Ki,SMILES
1,≥ 1 µM,"O=C(Nc1ccc(F)cc1)c1c(Nc2ccccc2)[nH]c(=O)[nH]c1=O [Cmpd 3, 2,4-dioxo-6-phenylamino-1,2,3,4-tetrahydro-pyrimidine-5-carboxylic acid (4-fluoro-phenyl)-amide]"
2,≥ 1 µM,Cc1ccccc1Nc1[nH]c(=O)[nH]c(=O)c1C(=O)Nc1ccc(F)cc1 [Cmpd 6]
3,≥ 1 µM,O=C(Nc1ccccc1)c1c(Nc2ccc(F)cc2)[nH]c(=O)[nH]c1=O [Cmpd 8]
4,≥ 1 µM,Cc1cccc(NC(=O)c2c(Nc3ccc(F)cc3)[nH]c(=O)[nH]c2=O)c1 [Cmpd 10]

# Continued, compound first:
row,SMILES,Ki
1,O=C(Nc1ccccc1)c1c(Nc2ccccc2)[nH]c(=O)[nH]c1=O [Cmpd 1],< 1 µM
2,"O=C(Nc1ccccn1)c1c(Nc2ccccc2)[nH]c(=O)[nH]c1=O [Cmpd 2, 2,4-Dioxo-6-phenylamino-1,2,3,4-tetrahydro-pyrimidine-5-carboxylic acid pyridin-2-ylamide]",≥ 1 µM
3,Cc1cccc(NC(=O)c2c(Nc3ccccc3)[nH]c(=O)[nH]c2=O)c1 [Cmpd 4],≥ 1 µM
4,Cc1ccccc1Nc1[nH]c(=O)[nH]c(=O)c1C(=O)Nc1ccccc1 [Cmpd 5],≥ 1 µM
5,Cc1cccc(NC(=O)c2c(Nc3ccccc3C)[nH]c(=O)[nH]c2=O)c1 [Cmpd 7],≥ 1 µM
6,O=C(Nc1ccc(F)cc1)c1c(Nc2ccc(F)cc2)[nH]c(=O)[nH]c1=O [Cmpd 9],≥ 1 µM
